Assay results: US20050138675A1, “Method for determining cardiotoxicity” (Pfizer Inc., priority 2003, published 2005)

Test system: cardiac ventricular tissue
Conditions: at least 2-fold relative to control
Source text: Male Sprague-Dawley rats weighing between 175-220 grams were used for all studies. Animals were purchased from Charles River Laboratories (Wilmington, Mass.) and allowed to acclimate for one week prior to use. All animals were given food and water ad libitum, and housed under a 12-hour light/12-hour dark cycle. The animals were housed in conventional plastic bottom cages (2 animals/cage) with corncob bedding. All dosing with test compounds was a single acute injection by the intraperitoneal route, in normal saline, with a 20×¾″ disposable needle attached to a 1 cc disposable syringe. These animals were euthanized by a 150 mg/kg intraperitoneal injection of Nembutal prior to collection of heart tissue.
Dose range-finding studies were completed to determine a xenobiotic dose that would produce signs of cardiotoxicity such as elevated serum troponins, creatine kinase isoenzymes, or histo-pathological tissue changes, without causing overt general toxicity. Comprehensive literature reviews were also used to select doses. […] Six or twenty-four hours later, animals were euthanized with a lethal intraperitoneal dose of Nembutal solution. Biopsy punches were used to remove approximately […] of ventricular tissue for subsequent RNA isolation and gene expression analysis. Total RNA was isolated from the samples using a Qiagen RNAeasy protocol (Valencia, Calif.). In this procedure, RNA is captured on a solid phase column, then washed with a series of solutions to purify the sample. In the last step, RNA is eluted from the column with RNAse free water. RNA quality and quantity was then checked with an optical density reading at 260/280 wavelengths, and an aliquot of RNA was run on an RNA denaturing gel. High quality RNA should have an OD 260/280 ratio of 2, and the denaturing gel should show two distinct ribosomal RNA bands.
Synthesis of double stranded cDNA from the total RNA isolated was the first step, which involves the incorporation of a T7-(dT)24 primer into the sequence, with subsequent second strand synthesis which yields a double stranded template for the in vitro transcription (IVT) reaction. The resulting cDNA was run in an IVT reaction using an Enzo BioArray High Yield RNA transcript labeling kit (Enzo Life Sciences, Inc. Farmingdale, N.Y.), during which a biotin label was incorporated into the complementary RNA (cRNA) sequence. This step also amplified the product by generating approximately 40 transcripts per cDNA substrate. After the IVT reaction, cRNA was fragmented by metallic fragmentation, and a small portion of the sample was run on a 1% agarose gel in order to visualize the fragmentation pattern. The range should be between 35 to 200 bases. Four samples from each group showing the highest purity and quality results were pooled for hybridization onto one Genechip to greatly reduce experimental costs. Genes of interest that are found through the use of GeneChip technology, will then be verified using real time PCR techniques on each individual sample.
Next, the cRNA was hybridized to the RG U34A GeneChip oligonucleotide array (Affymetrix Inc, Santa Clara, Calif.). An aliquot of the fragmented cRNA was mixed with control components, injected into the array, and the filled array was allowed to incubate at 45° C. for 16 hours in an Affymetrix oven, which rotates the samples continuously during incubation. The next morning, the array was taken from the oven and the sample was removed and frozen at −80° C. for possible future use. That is, in the event of a defective chip, the hybridization solution can be re-used. The array chamber was then filled with a wash buffer, and placed in an automated fluid exchange system. The fluidics station controls the washing and staining of the probe array with the fluorescently labeled streptavidin stain solution and an antibody solution. After the staining process was complete the chips were scanned by an Agilent GeneArray laser scanner (Agilent, Palo Alto, Calif.).

[1] = 6 hour after single i.p. dose (DIG 20, DOX 30, ISO 70, LPS 10 mg/kg)
[2] = 24 hour after single i.p. dose (DIG 20, DOX 30, ISO 70, LPS 10 mg/kg)

## lipopolysaccharide [LPS]
[1]
  AA957003 intercellular calcium-binding protein expression, up or down: up
  AI176456 metallothionein expression, up or down: up
  J02722 heme oxygenase (hsp32) expression, up or down: up
  X01118 gamma-rANP expression, up or down: down
  X89225 L-like neutral amino acid transport protein expression, up or down: up
[2]
  AA892801 EST expression, up or down: up
  AA899106 cyclin D2 expression, up or down: down
  AB005743 fatty acid transporter expression, up or down: up
  AF016296 neuropilin expression, up or down: down
  AI008852 EST expression, up or down: up
  AI170776 GRB2 expression, up or down: up
  AI638989 EST expression, up or down: down
  D85183 SHPS-1 expression, up or down: up
  M57276 leukocyte antigen MRC-OX44 expression, up or down: up
  U14950 synapse-associated protein 97 expression, up or down: up
  U68272 interferon gamma receptor expression, up or down: up
  X52140 integrin alpha-1 expression, up or down: down
  X71127 complement protein C1q beta chain expression, up or down: up
